Measured values reported in patent US12097174B2, “Methods and agents that enhance myogenic progenitor cell engraftment” (President and Fellows of Harvard College, priority 2018, dated 2024).
Entries after “also recorded” stand apart in the source; their conditions may differ.

What was measured:
ZeMPCs [1] = assay: Calcium imaging in Fura-2, AM treated ZeMPCs (single-cell imaging); assay type: cell-based, zebrafish; conditions: 10 μM NFA, 5 μM LPA, 10 μM ionomycin; 10-20 seconds after loading
Method: Fura-2, AM treated ZeMPCs were exposed to 10 μM NFA, 5 μM LPA, 10 μM lonomycin (as a positive control) and DMSO (as vehicle control) to visualize their effect on intracellular calcium ion concentration using single-cell imaging. […] Scale bar 50 μm.
The ZeMPCs and C2C12 cells were incubated with Fura-2, AM (Thermo Fisher Sci F1225), a cell permeant fluorescent calcium ion indicator, for 45 minutes at 28.5° C. and 37° C., respectively, followed by imaging with Celldiscoverer7 Microscope (Zeiss). 20 seconds after imaging initiation the treatment was added to the cells and continued for a total of 2-3 minutes.

ZeMPCs [2] = assay: ZeMPC competitive transplantation assay; assay type: in vivo; conditions: co-injected into prkdc-mutant zebrafish, imaged at 7 dpt
Text: FIGS. 20A-20B show ZeMPC competitive transplantation assays results. (FIG. 20A) Experimental design of ZeMPC competitive transplantation assays using different combinations of chemical-treated or DMSO-treated ZeMPCs marked by mCherry or GFP. ZeMPCs were co-injected from mylz2-GFP and mylz2-mCherry donors into 4- to 8-months-old prkdc-mutant recipient zebrafish and imaged at 7 dpt to assess the engraftment of mylz2-mCherry (pre-transplantation treatment with DMSO) and mylz2-GFP (pre-transplantation treatment with DMSO, LPA or NFA) cells. (FIG. 20B) Engraftment efficiency of equal numbers of DMSO-treated mCherry cells vs. DMSO-treated GFP cells (left), DMSO-treated mCherry cells vs. LPA-treated GFP cells (middle) and DMSO-treated mCherry cells vs. NFA-treated GFP cells (right).
Lipids are frequently found to enhance cell migration and homeostasis in blood and muscle tissue (Cencetti et al., 2014; Lahvic et al., 2018; Li et al., 2015; Oh et al., 2016), and so it was elected to screen mainly bioactive lipids in efforts to identify compounds that enhance ZeMPCs engraftment efficiency in vivo. Myogenic progenitor cells were treated for 4 hours with one of the 188 unique lipid compounds contained in the ICCB Known Bioactives Library. […] Engraftment efficiency was measured by imaging casper recipients at 7 dpt (FIG. 18A). […]

muscle progenitor cells = assay: Measurement of Ca2+ transients in fura-2 AM-loaded muscle progenitor cells; assay type: cell-based
Method: Measurement of Ca2+ transients was performed in fura-2 AM-loaded cells.
Thus, it is possible that the enhanced engraftment capacity of muscle progenitor cells exposed to these compounds involves a common Ca^2+-dependent signaling events (FIG. 9).

mouse satellite cells = assay: Calcium imaging in Fluo-4 AM-loaded mouse satellite cells (AUC of signal intensity); assay type: cell-based; conditions: 1-5 μM of LPA, 2.5-10 μM of NFA; 1,500 cells/well
Method: First, to establish optimal conditions, cells were sorted by FACS into 384 well plates at 10,000, 5,000, 1,500, or 500 cells per well, with 8 replicates for each cell density. […] Cells were again incubated with Fluo4 AM for 45 minutes at 37° C. followed by imaging. Different concentrations of LPA, NFA, or both compounds combined, along with DMSO (vehicle control) and ionomycin (direct calcium ionophore), were added 60 seconds after the beginning of imaging to quantify both baseline calcium ion concentrations and calcium flux in response to the different treatment conditions. Calcium concentrations were calculated as area under the curve (AUC) of signal intensity and compared these values across different concentrations of each compound (FIG. 25A).
Satellite cells were isolated from wild-type mice (FVB/NJ) and sorted into 384 well plates in culture media. The cells were incubated overnight at 37° C. The next day, the cells were incubated with Fluo-4 AM (Thermo Fisher Sci F14201), a fluorescent calcium ion indicator, for 45 minutes at 37° C., followed by imaging of the entire plate with the FDSS 7000 ex functional drug screening system (Hamamatsu) in the BCH assay development and screening facility.

[3] = system: sapje-like (sap^c/100) fish; assay: Swimming performance of sapje-like fish before and after transplantation of treated ZeMPCs; assay type: in vivo, zebrafish; conditions: cells treated before transplant; tested 7 days after transplant, flow about 5.5 L/min
Method: Finally, to assess the functionality of myogenic precursors exposed to NFA and/or LPA prior to muscle engraftment, the swimming performance of sapje-like fish was evaluated before and after transplantation. […] Recipient sapje-like fish were irradiated and injected with healthy ZeMPCs, exposed prior to transplant to NFA, LPA or vehicle alone, on both flanks at 3 dorsal points on each side-in the tail, beneath the dorsal fin, and in the trunk-with 25 cells per injection. Immediately prior to transplant, and again 7 days after transplant, muscle function was tested in a modified Blazka-type swim chamber, in which a flow rate of approximately 5.5 L/min was introduced to test swimming performance (FIG. 16A). […] Because only the treated cells were transplanted, after removal of the compounds, it was concluded from these studies that the swimming performance of these transplanted sapje-like fish was improved as a result of better engraftment by NFA-treated or LPA-treated ZeMPCs. Juvenile zebrafish from a sapje-like transgenic line were fin-clipped and genotyped to identify heterozygotes. A flow-through modified Blazka-type swim chamber was creating using a horizontal acrylic tank with dimensions of 350 mm 1×47 mm w×90 mm d. […] The raw digital file was then analyzed for movement within the swim area. The distance from the flow source was quantified using MATLAB (MathWorks).

O=C(O)c1cccnc1Nc1cccc(C(F)(F)F)c1 [NFA, niflumic acid]
intracellular calcium ion concentration (ZeMPCs [1]): increase
advantage compared to DMSO-treated control cells in competitive transplantation (ZeMPCs [2]): ~2 fold
cytoplasmic Ca2+ concentration (muscle progenitor cells): stimulate increases
calcium ion concentrations (AUC of signal intensity) relative to vehicle-treated controls (mouse satellite cells): increased significantly
swimming performance vs fish engrafted with vehicle-treated cells [3]: better swimming performance; also recorded: performed significantly better

lysophosphatidic acid [LPA]
intracellular calcium ion concentration (ZeMPCs [1]): increase
advantage compared to DMSO-treated control cells in competitive transplantation (ZeMPCs [2]): ~2 fold
cytoplasmic Ca2+ concentration (muscle progenitor cells): stimulate increases
calcium ion concentrations (AUC of signal intensity) relative to vehicle-treated controls (mouse satellite cells): increased significantly
swimming performance vs fish engrafted with vehicle-treated cells [3]: better swimming performance; also recorded: performed significantly better
